Test results from patent US20090018111A1, “Novel Antimicrobial Medicament” (priority 2004, published 2009).
Where two headings read alike, the source gives them in different places.

Columns and labels:
M. luteus ATCC9341 = test: Sensitivity test (agar dilution); format: cell-based, Micrococcus luteus; details: Micrococcus luteus, M. luteus ATCC9341
Experimental: (§1) The antibacterial activities were tested against various 18 bacteria (27 standard strains) which are representative bacteria caused clinically infectious disease (Staphylococcus aureus 3 strains, Staphylococcus epidermidis 1 strain, Micrococcus luteus 1 strain, Streptococcus pyogenes 1 strain, Enterococcus faecalis 1 strain, Enterococcus faecium 1 strain, Bacillus subtilis 1 strain, Escherichia coli 3 strains, Klebsiella pneumoniae 1 strain, Proteus mirabilis 1 strain, Proteus vulgaris 2 strains, Pseudomonas aeruginosa 3 strains, Serratia marcescens 2 strains, Enterobacter aerogenes 1 strain, Stenotrophomonas maltophilia 1 strain, Enterobacter cloacae 1 strain, Citrobacter freundii 1 strain, Moraxella catarrhalis 2 strains).
(§2) According to the standard method of Japan Chemotherapeutic Society (Chemotherapy, vol. […], p 76-79 (1981)) the test was carried out using the agar dilution method. After dissolving test samples in distilled water, agar medium containing the test samples was prepared in such a manner that the final concentration became twice serial dilution by pouring serially diluted combination drug solution or a single drug solution into agar medium. As agar medium was used Mueller Hinton Agar medium (MHA). Then, each strain was cultivated over night at 37° C. in an incubator and suspended in buffered saline solution with gelatin (BSG) in the concentration of about 10^6 CFU/ml. The suspension (about 5 μl) containing test strains was inoculated to the medium containing the test samples by Micro Planter.
(§3) When the sample is subjected to sensitivity test, this mixed solution was diluted by twice serial dilution method.
(§4) Furthermore, when the drug is solely used, each test sample was used as it is, and diluted by twice serial dilution method from the maximum concentration to the minimum concentration.
(§5) FIC index based on MIC value was calculated. […] Namely, when FIC index calculated by the following formula is equal or less than 1, the enhanced effect of the combination drug in said ratio is considered as positive. When FIC index is over 1, the enhanced effect of the combination drug in said ratio is considered as negative.
(§6) Formula of FIC index: FIC index=(MIC of Drug A in combination/MIC of Drug A alone)+(MIC of Drug B in combination/MIC of Drug B alone) N.C. in tables means being not calculated.

S. aureus 209P = test: Sensitivity test (agar dilution); format: cell-based, Staphylococcus aureus; details: Staphylococcus aureus, 209P, S. aureus 209P
Experimental: as §1, §2, §3, §4, §5, §6

[1] = tested on: S. aureus MS94088 (hetero-MRSA); test: Sensitivity test (agar dilution); format: cell-based, Staphylococcus aureus; details: Staphylococcus aureus, MRSA, S. aureus MS94088 (hetero-MRSA)
Experimental: as §1, §2, §3, §4, §5, §6

[2] = tested on: S. aureus SP-7928 (homo-MRSA); test: Sensitivity test (agar dilution); format: cell-based, Staphylococcus aureus; details: Staphylococcus aureus, MRSA, S. aureus SP-7928 (homo-MRSA)
Experimental: as §1, §2, §3, §4, §5, §6

P. aeruginosa TL-2667 = test: Sensitivity test (agar dilution); format: cell-based, Pseudomonas aeruginosa; details: Pseudomonas aeruginosa, P. aeruginosa TL-2667
Experimental: as §1, §2, §3, §4, §5, §6

P. vulgaris GN7919 = test: Sensitivity test (agar dilution); format: cell-based, Proteus vulgaris; details: Proteus vulgaris, P. vulgaris GN7919
Experimental: as §1, §2, §3, §4, §5, §6

P. vurgalis OX-19 = test: Sensitivity test (agar dilution); format: cell-based, Proteus vulgaris; details: Proteus vulgaris, P. vurgalis OX-19
Experimental: as §1, §2, §3, §4, §5, §6

E. coli ML1410 RP4 = test: microbe, parasite or virus in culture; format: cell-based, Escherichia coli; details: Escherichia coli, E. coli ML1410 RP4
Experimental: as §1, §2, §3, §4, §5, §6

E. faecalis ATCC19433 = test: Sensitivity test (agar dilution); format: cell-based, Enterococcus faecalis; details: Enterococcus faecalis, E. faecalis ATCC19433
Experimental: as §1, §2, §3, §4, §5, §6

Str. pyogenes Cook = test: Sensitivity test (agar dilution); format: cell-based, Streptococcus pyogenes; details: Streptococcus pyogenes, Str. pyogenes Cook
Experimental: as §1, §2, §3, §4, §5, §6

S. marcescens GN6473 = test: Sensitivity test (agar dilution); format: cell-based, Serratia marcescens; details: Serratia marcescens, S. marcescens GN6473
Experimental: as §1, §2, §3, §4, §5, §6

S. marcescens X 100 = test: Sensitivity test (agar dilution); format: cell-based, Serratia marcescens; details: Serratia marcescens, S. marcescens X 100
Experimental: as §1, §2, §3, §4, §5, §6

C. freundii GN346 = test: Sensitivity test (agar dilution); format: cell-based, Citrobacter freundii; details: Citrobacter freundii, C. freundii GN346
Experimental: as §1, §2, §3, §4, §5, §6

[3] = ATCC9341, drug alone, read-out: MIC alone
[4] = Concomitant (AZT:SM = 1:1), read-out: MIC concomitant
[5] = drug alone, read-out: MIC alone
[6] = TL2667, drug alone, read-out: MIC alone
[7] = GN7919, drug alone, read-out: MIC alone
[8] = OX19, drug alone, read-out: MIC alone
[9] = ML1410RP4, read-out: MIC alone, drug alone
[10] = ATCC19433, drug alone, read-out: MIC alone
[11] = GN6473, drug alone, read-out: MIC alone
[12] = X100, drug alone, read-out: MIC alone
[13] = GN346, drug alone, read-out: MIC alone
[14] = Concomitant (BIPM:SM = 1:1), read-out: MIC concomitant
[15] = Concomitant (CAZ:SM = 1:1), read-out: MIC concomitant

Compound | MIC (M. luteus ATCC9341; [3]) | MIC (S. aureus 209P; [5]) | MIC [1, 5] | MIC [2, 5] | MIC (P. aeruginosa TL-2667; [6]) | MIC (P. vulgaris GN7919; [7]) | MIC (P. vurgalis OX-19; [8]) | MIC (E. coli ML1410 RP4; [9]) | MIC (E. faecalis ATCC19433; [10]) | MIC (Str. pyogenes Cook; [5]) | MIC (S. marcescens GN6473; [11]) | MIC (S. marcescens X 100; [12]) | MIC (C. freundii GN346; [13]) | also measured
C[C@H]1[C@H](NC(=O)/C(=N\OC(C)(C)C(=O)O)c2csc(N)n2)C(=O)N1S(=O)(=O)O [AZT, aztreonam] | 16 µg/mL | > 32 µg/mL | > 32 µg/mL | > 32 µg/mL | 2 µg/mL | 0.125 µg/mL | 0.004 µg/mL | 0.125 µg/mL | > 32 µg/mL | 16 µg/mL | 0.125 µg/mL | 0.063 µg/mL | 0.5 µg/mL | MIC (M. luteus ATCC9341; ATCC9341, Concomitant (AZT:SM = 1:1), read-out: MIC concomitant): ≤ 0.002 µg/mL; MIC (S. aureus 209P; [4]): 0.008 µg/mL; MIC [1, 4]: 0.25 µg/mL; MIC [2, 4]: 2 µg/mL; MIC (P. aeruginosa TL-2667; TL2667, Concomitant (AZT:SM = 1:1), read-out: MIC concomitant): 8 µg/mL; MIC (P. vulgaris GN7919; GN7919, Concomitant (AZT:SM = 1:1), read-out: MIC concomitant): 0.25 µg/mL; MIC (P. vurgalis OX-19; OX19, Concomitant (AZT:SM = 1:1), read-out: MIC concomitant): 0.004 µg/mL; MIC (E. coli ML1410 RP4; ML1410RP4, read-out: MIC concomitant, Concomitant (AZT:SM = 1:1)): 0.063 µg/mL; MIC (E. faecalis ATCC19433; ATCC19433, Concomitant (AZT:SM = 1:1), read-out: MIC concomitant): 1 µg/mL; MIC (Str. pyogenes Cook; [4]): 0.004 µg/mL; MIC (S. marcescens GN6473; GN6473, Concomitant (AZT:SM = 1:1), read-out: MIC concomitant): 0.25 µg/mL; MIC (S. marcescens X 100; X100, Concomitant (AZT:SM = 1:1), read-out: MIC concomitant): 0.031 µg/mL; MIC (C. freundii GN346; GN346, Concomitant (AZT:SM = 1:1), read-out: MIC concomitant): 8 µg/mL
C[C@@H](O)[C@H]1C(=O)N2C(C(=O)[O-])=C(SC3Cn4cnc[n+]4C3)[C@H](C)[C@H]12 (stereo partly drawn) [BIPM, biapenem] | 0.125 µg/mL | 0.031 µg/mL | 4 µg/mL | > 32 µg/mL | 8 µg/mL | 0.5 µg/mL | 0.25 µg/mL | 0.25 µg/mL | 4 µg/mL | 0.008 µg/mL | 0.125 µg/mL | 0.063 µg/mL | 0.25 µg/mL | MIC (M. luteus ATCC9341; ATCC9341, Concomitant (BIPM:SM = 1:1), read-out: MIC concomitant): 0.004 µg/mL; MIC (S. aureus 209P; [14]): 0.008 µg/mL; MIC [1, 14]: 0.25 µg/mL; MIC [2, 14]: 2 µg/mL; MIC (P. aeruginosa TL-2667; TL2667, Concomitant (BIPM:SM = 1:1), read-out: MIC concomitant): 4 µg/mL; MIC (P. vulgaris GN7919; GN7919, Concomitant (BIPM:SM = 1:1), read-out: MIC concomitant): 0.25 µg/mL; MIC (P. vurgalis OX-19; OX19, Concomitant (BIPM:SM = 1:1), read-out: MIC concomitant): 0.031 µg/mL; MIC (E. coli ML1410 RP4; ML1410RP4, read-out: MIC concomitant, Concomitant (BIPM:SM = 1:1)): 0.125 µg/mL; MIC (E. faecalis ATCC19433; ATCC19433, Concomitant (BIPM:SM = 1:1), read-out: MIC concomitant): 1 µg/mL; MIC (Str. pyogenes Cook; [14]): 0.004 µg/mL; MIC (S. marcescens GN6473; GN6473, Concomitant (BIPM:SM = 1:1), read-out: MIC concomitant): 0.125 µg/mL; MIC (S. marcescens X 100; X100, Concomitant (BIPM:SM = 1:1), read-out: MIC concomitant): 0.063 µg/mL; MIC (C. freundii GN346; GN346, Concomitant (BIPM:SM = 1:1), read-out: MIC concomitant): 0.125 µg/mL
CC(C)(O/N=C(\C(=O)N[C@@H]1C(=O)N2C(C(=O)[O-])=C(C[n+]3ccccc3)CS[C@H]12)c1csc(N)n1)C(=O)O [CAZ, ceftazidime] | 1 µg/mL | 8 µg/mL | > 32 µg/mL | > 32 µg/mL | 1 µg/mL | 0.5 µg/mL | 0.031 µg/mL | 0.5 µg/mL | > 32 µg/mL | 0.125 µg/mL | 0.5 µg/mL | 0.25 µg/mL | 1 µg/mL | MIC (M. luteus ATCC9341; ATCC9341, Concomitant (CAZ:SM = 1:1), read-out: MIC concomitant): ≤ 0.002 µg/mL; MIC (S. aureus 209P; [15]): 0.004 µg/mL; MIC [1, 15]: 0.25 µg/mL; MIC [2, 15]: 1 µg/mL; MIC (P. aeruginosa TL-2667; TL2667, Concomitant (CAZ:SM = 1:1), read-out: MIC concomitant): 8 µg/mL; MIC (P. vulgaris GN7919; GN7919, Concomitant (CAZ:SM = 1:1), read-out: MIC concomitant): 0.5 µg/mL; MIC (P. vurgalis OX-19; OX19, Concomitant (CAZ:SM = 1:1), read-out: MIC concomitant): 0.008 µg/mL; MIC (E. coli ML1410 RP4; ML1410RP4, read-out: MIC concomitant, Concomitant (CAZ:SM = 1:1)): 0.125 µg/mL; MIC (E. faecalis ATCC19433; ATCC19433, Concomitant (CAZ:SM = 1:1), read-out: MIC concomitant): 1 µg/mL; MIC (Str. pyogenes Cook; [15]): 0.004 µg/mL; MIC (S. marcescens GN6473; GN6473, Concomitant (CAZ:SM = 1:1), read-out: MIC concomitant): 0.5 µg/mL; MIC (S. marcescens X 100; X100, Concomitant (CAZ:SM = 1:1), read-out: MIC concomitant): 0.125 µg/mL; MIC (C. freundii GN346; GN346, Concomitant (CAZ:SM = 1:1), read-out: MIC concomitant): 8 µg/mL
